In PMC3914206:

Experiments:
panel of 442 kinases [1] = biological target: T1, panel of 442 kinases (Homo sapiens, UniProt Q8IW41); format: binding; details: Compound Concentration 10 µM
T1 construct: purchased KINOMEscan
T1 sequence (Q8IW41 1-473): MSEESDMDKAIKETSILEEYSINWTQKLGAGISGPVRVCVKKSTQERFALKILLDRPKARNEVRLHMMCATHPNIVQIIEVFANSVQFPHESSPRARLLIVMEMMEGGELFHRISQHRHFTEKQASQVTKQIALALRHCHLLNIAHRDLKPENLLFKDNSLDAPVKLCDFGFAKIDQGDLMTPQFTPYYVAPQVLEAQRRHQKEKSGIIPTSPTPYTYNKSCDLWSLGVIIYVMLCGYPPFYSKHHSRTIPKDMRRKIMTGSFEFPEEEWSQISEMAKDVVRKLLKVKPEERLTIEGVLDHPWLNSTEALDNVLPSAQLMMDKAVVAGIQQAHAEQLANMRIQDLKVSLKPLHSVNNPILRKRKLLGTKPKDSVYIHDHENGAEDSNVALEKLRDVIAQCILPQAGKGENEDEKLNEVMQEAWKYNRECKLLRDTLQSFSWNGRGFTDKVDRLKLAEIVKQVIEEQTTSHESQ
From the text: (§1) We assessed the selectivity of members of this scaffold using the KINOMEscan methodology across a near comprehensive panel of 442 kinases [[18,27]].

panel of 442 kinases [2] = biological target: T2, panel of 442 kinases (Homo sapiens, UniProt P36888, D835H); format: binding; details: Compound Concentration 10 µM
T2 construct: purchased KINOMEscan
T2 sequence (P36888 27-993 D835H): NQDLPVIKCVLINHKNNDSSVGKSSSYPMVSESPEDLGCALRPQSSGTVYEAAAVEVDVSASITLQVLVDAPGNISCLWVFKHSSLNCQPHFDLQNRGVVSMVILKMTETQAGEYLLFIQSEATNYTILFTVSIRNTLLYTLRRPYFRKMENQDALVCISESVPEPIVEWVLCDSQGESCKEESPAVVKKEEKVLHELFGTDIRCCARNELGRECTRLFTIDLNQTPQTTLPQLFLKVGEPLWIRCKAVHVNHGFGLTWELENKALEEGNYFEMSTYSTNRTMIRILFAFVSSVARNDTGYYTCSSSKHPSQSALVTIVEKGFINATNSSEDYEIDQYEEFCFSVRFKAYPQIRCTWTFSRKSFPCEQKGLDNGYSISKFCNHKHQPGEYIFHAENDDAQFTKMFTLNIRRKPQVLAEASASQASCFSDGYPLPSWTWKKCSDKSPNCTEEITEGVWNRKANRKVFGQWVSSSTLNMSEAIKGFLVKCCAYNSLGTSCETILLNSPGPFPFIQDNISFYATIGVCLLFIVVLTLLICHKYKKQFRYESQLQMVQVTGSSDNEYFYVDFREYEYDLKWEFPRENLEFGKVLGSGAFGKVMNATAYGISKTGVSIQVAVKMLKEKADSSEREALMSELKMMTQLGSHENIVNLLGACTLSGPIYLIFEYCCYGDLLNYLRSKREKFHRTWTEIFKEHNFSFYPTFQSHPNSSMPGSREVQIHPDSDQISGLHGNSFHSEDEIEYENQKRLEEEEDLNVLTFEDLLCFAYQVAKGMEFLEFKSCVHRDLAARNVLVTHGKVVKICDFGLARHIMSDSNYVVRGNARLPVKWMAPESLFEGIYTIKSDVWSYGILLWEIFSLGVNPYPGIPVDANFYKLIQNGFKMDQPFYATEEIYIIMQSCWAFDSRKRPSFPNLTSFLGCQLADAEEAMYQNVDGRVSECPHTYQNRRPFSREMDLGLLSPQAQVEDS
From the text: as §1

SMILES	KINOMEscan: MAPKAPK5 (panel of 442 kinases [1])	KINOMEscan: FLT3(D835H) (panel of 442 kinases [2])
COc1cc(C(=O)N2CCC(N3CCN(C)CC3)CC2)ccc1Nc1ncc2c(n1)N(C)c1ccccc1C(=O)N2C [15 (LRRK2-IN-1)]	97	100
CCOc1cc(C(=O)N2CCC(N3CCN(C)CC3)CC2)ccc1Nc1ncc2c(n1)N(C1CCCC1)c1ccccc1C(=O)N2C [Compound 26]	100	100
COc1cc(C(=O)N2CCC(N3CCN(C)CC3)CC2)ccc1Nc1ncc2c(n1)N(C1CCCC1)c1ccccc1C(=O)N2C [Compound 25, 11-cyclopentyl-2-((2-methoxy-4-(4-(4-methylpiperazin-1-yl)piperidine-1-carbonyl)phenyl)amino)-5-methyl-5H-benzo[e]pyrimido[5,4-b][1,4]diazepin-6(11H)-one]	96	100
